Laboratory results reported in patent US7598377B2, “Inhibition of phosphoinositide 3-kinase β” (AstraZeneca AB, priority 2002, dated 2009).
Where two headings read alike, the source gives them in different places.

Tests used:
neutrophils = assay: Neutrophil ROS response (fmlp, DHR, FACS); format: cell-based, human; settings: fmlp stimulation, read-out: ROS release from neutrophils Example 14 IC50/
Procedure: 3 ml of preservative free whole blood was placed in a 50 ml conical tube. 48 ml of erythrocyte lysing solution and gently mixed by inversion for 10 min at 25° C. on a haematology nutator and subsequently centrifuged for 10 min at 350×g at 25° C. in a table top centrifuge. The Leukocyte rich pellet was resuspended in phosphate buffered saline supplemented with […] (PBS-gel) and centrifuged as above. The Leukocyte pellet was washed once with Hanks' balanced salt solution (HBSS) and resuspended at a final cell count of 2×10^6/ml and used immediately.
Reactive Oxygen Species (ROS) generation is one of the hall-marks of neutrophil activation. A number of chemokines and cytokines potentiate ROS generation by neutrophils. […] ROS generation was measured by monitoring the oxidation of intracellular dihydrorhodamine 123 (DHR) via fluorescence activated cell sorting (FACS) by modification of the method of Robinson et al., (pp 9.7.5-9.7.9 in Curr. Protocols in Cytometry (1997)). A Leukocyte suspension was bulk loaded with 2 μl of 50 mM DHR per ml cells ([…]) and incubated at 37° C. for 12 min. […] Fluorescence base-line data was calibrated using these gated control neutrophils. Stimulated cell samples were analysed and linear green fluorescence (DHR) was monitored for 5000 gated neutrophils from each sample. […]

platelet rich plasma = assay: CD9-antibody induced platelet aggregation of platelet rich plasma; format: cell-based; settings: read-out: Platelet aggregation v. CD9 antibody Example 10 IC50/
Procedure: The inhibitory effect of TGX286 and KN327 on platelet aggregation induced by the antibody CD9 was examined in platelet rich plasma (PRP). A suspension of PRP was incubated with 20-100 nM TGX286 or control buffer (0.1% DMSO) and treated with an aliquot of the antibody. Aggregation under stirring was monitored in a four channel aggregometer for 10 minutes. The level of aggregation was measured as the change in light transmission through the sample cell.

[1] = system: carotid artery cyclic flow reductions in rat; assay: Animal model of internal carotid artery occlusion (Folts); format: in vivo; settings: 14.0 mg/kg via the jugular vein
From the text: This model is used to investigate the effects of antithrombotic drugs on clotting time in vivo in response to a crash injury followed by arterial stenosis.
The carotid artery of an anesthetized rat is dissected out, and an electromagnetic flow probe is placed around the artery to measure blood flow. Proximal to the flow probe, the artery is clamped with surgical forceps covered with silicone tubing to cause intimal and medial damage to the vessel wall. A ligature, or plastic cylinder of appropriate inside diameter is laced around the artery to produce a 70% reduction in arterial diameter.
Platelets aggregate in the area of the stenosed and damaged arterial vessel, gradually forming an occlusive platelet thrombus, seen as a decrease in blood flow. As the thrombus forms, blood pressure increases, causing the thrombus to fragment and embolize distal to the stenosed site. […] This causes a sudden restoration of blood flow. Platelets again aggregate in the area of the stenosed and damaged arterial vessel, repeating the thrombus-embolization pattern. This acute, platelet-mediated thrombus formation, followed by embolization, causes Cyclic Flow Reductions (CFR) in blood flow. Once a rat produces regular CFRs, an anti-thrombotic compound or vehicle control is administered via the jugular vein.

U937 cells = assay: Cell proliferation assay; format: cell-based; settings: Homo sapiens, U-937; read-out: Anti-proliferative activity v. U937 cells Example 16 IC50/
From the text: The cytotoxic activity of the compounds was monitored over four days by counting cell number, and determining cell viability using a colorimetric assay of metabolic activity.

[2] = system: platelet thrombus formation in citrated whole blood; assay: Platelet thrombus formation under flow (Example 12, 600 s^−1); format: cell-based; settings: read-out: Inhibition of Thrombus formation Example 12 IC50/
Procedure: Blood was perfused through von Willebrand factor—(vWf) coated microcapillary tubes for 2 minutes at 600 s^−1. Non-adherent cells were removed by perfusion of buffer for 2 minutes at 600 s^−1 and any adherent erythrocytes lysed through treatment with 1% ammonium oxalate. Adherent platelets were then lysed through addition of 1% Triton X-100 and lactate dehydrogenase (LDH) levels (U/L) analysed by spectrophotometry.

[3] = system: PI 3-kinase immunoprecipitated from human platelets (p85/110 form); assay: In vitro PI 3-kinase assay (Example 8), Platelet IP (p85); format: biochemical; settings: read-out: Platelet IP (p85) IC50s
Procedure: The effect of pyridine-substituted compounds on PI 3-kinase activity was determined using an in vitro PI 3-kinase assay. This assay was performed using PI 3-kinase immunoprecipitated from human platelets as the enzyme and PI as the substrate. The PI 3-kinase activity was quantitated by measuring the enzymatic incorporation of [^32P] into PI, forming PI([^32P]-3)P, as previously described (Susa et al., 1992, The Journal of Biological Chemistry 267(32):22951-22956.
Washed human platelets were lysed in Triton X-100 lysis buffer (10 mM Tris, pH 7.4, 1% Triton X-100, 2 mM EDTA, 1 mM PMSF) for 30 minutes. The Triton X-100 insoluble fraction was removed by centrifugation of the cell lysates at 15,000 g for 10 minutes. PI 3-kinase was immunoprecipitated by mixing 500 μg of the cell lysate with 1 μg of a rabbit anti-rat antibody against the p85/110 form of PI 3-kinase and 30 μl of 50% Protein A-sepharose beads for 2 hours at 4° C. The Protein A-sepharose-bound PI 3-kinase was isolated by pelleting the beads at 15,000 g for 5 seconds, and washing three times with ice-cold Triton X-100 lysis buffer followed by four washes with PI 3-kinase assay buffer (20 mM HEPES, pH 7.4, 1 mM EGTA, 5 mM MgCl2).
PI stored in CHCl3 was dried under N2, resuspended in the lipid buffer (50 mM HEPES, pH 7.2, 1 mM EDTA) at a final concentration of 330 μg/ml, and sonicated for 6 minutes on ice. PI([^32P]-3)P was generated by mixing the immunoprecipitated PI 3-kinase for 20 minutes with 40 μl of the PI, 10 μl of ATP (1 mM) and ^32P-r-ATP (0.5 μCi, 1 μCi/nmol), 10 μl of 10× kinase buffer, in a final assay volume of 100 μl adjusted with H2O. TGX-was preincubated with the PI 3-kinase for 5 minutes prior to the addition of ATP. The assay was terminated with 100 μl of 1 N HCl, and the PI([^32P]-3)P product extracted with 200 μl chloroform:methanol (1:1) and 500 μl 2 M KCl. The PI([^32P]-3)P in the chloroform phase was resolved by thin layer chromatography using a solvent system containing CHCl3:MeOH:HAC:H2O (43:38:5:7) (v:v:v:v), and visualized by autoradiography. The PI([^32P]-3)P spots were then scraped off from the TLC plates, deacylated with 1 ml methylamine:butanol:methanol (42:9:47) (v:v:v) for 4 hours at 53° C., and quantitated using a liquid scintillation counter (LKB 1209 RackBETA).

P110 β isoform = biological target: T1, P110 β isoform (Homo sapiens, UniProt P42338); assay: Isoform selective in vitro PI3K enzyme assay (Example 13), β; format: biochemical
T1 construct: The α and β isoforms of the PI3K were immunoprecipitated from a platelet lysate; from tissue; host or cells: washed platelets (lysate, immunoprecipitated with anti-p110β antibody)
Procedure: (§1) In vitro enzyme assays were conducted as a primary screen to determine drug candidate isoform affinity and specificity. The α and β isoforms of the PI3K were immunoprecipitated from a platelet lysate, using an antibodies obtained from Santa Cruz Biotechnology, that recognized specific regions of p110α (sc-7174) and β (sc-603) isoforms. The γ isoform was produced as a recombinant protein in the Kinacia laboratories. The δ isoform was immunoprecipitated from THP-1 cells in a similar manner using a δ isoform specific antibody (sc-7176). Standard phosphorylation assays using phosphatidylinositol and ^32P were used to measure the enzyme activity in the immunoprecipates in the presence or absence of an inhibitor. Enzyme activity was determined over a range of inhibitor concentrations to establish an IC50 value.

washed platelets = assay: Flow-based reconstitution assay (platelet adhesion to vWf); format: cell-based; settings: 1800 s^−1
Procedure: The platelets and reconstituted red blood cells were perfused through vWf-coated glass microslides for 1 minute at a shear rate of 1800 s^−1. Non-adherent cells were removed by washing for 10 minutes at 1800 s^−1 and the number of adherent platelet were quantitated and expressed as the mean±SEM.

P110 γ = biological target: T2, P110 γ (Homo sapiens, UniProt P48736); assay: Isoform selective in vitro PI3K enzyme assay (Example 13), γ recombinant; format: biochemical; settings: read-out: P110 γ IC50s
T2 construct: made in house
Procedure: as §1, with “The δ isoform was immunoprecipitated from THP-1 cells in a similar manner using a δ isoform specific antibody (sc-7176).” left out

P110 δ = biological target: T3, P110 δ (Homo sapiens, UniProt O00329); assay: Isoform selective in vitro PI3K enzyme assay (Example 13), δ from THP-1 cells; format: biochemical; settings: read-out: P110 δ IC50s
T3 construct: The δ isoform was immunoprecipitated from THP-1 cells; endogenous in cells; host or cells: THP-1 cells (immunoprecipitated with antibody sc-7176)
Procedure: In vitro enzyme assays were conducted as a primary screen to determine drug candidate isoform affinity and specificity. […] The γ isoform was produced as a recombinant protein in the Kinacia laboratories. […] Standard phosphorylation assays using phosphatidylinositol and ^32P were used to measure the enzyme activity in the immunoprecipates in the presence or absence of an inhibitor. Enzyme activity was determined over a range of inhibitor concentrations to establish an IC50 value.

[4] = system: platelets on immobilized vWf; assay: In vitro flow studies: platelet calcium flux and adhesion on immobilized vWf; format: cell-based; settings: vWf matrix, shear rate gradient up to 10,000 s^−1 over 1 s
Procedure: The use of an in vitro-flow based adhesion assay enables us to simultaneously analyze platelet adhesion dynamics and activation (by monitoring cytosolic calcium flux) on immobilized von Willebrand factor (vWf). Briefly, isolated platelets are perfused through vWf (100 μg/ml) coated microcapillary tubes and analysis of cytosolic calcium flux conducted in real-time by confocal microscopy.
Washed platelets (1.5×10^9) suspended in PWB were incubated with the calcium indicator dyes, Oregon Green 488 BAPTA-1, AM (1 μM) and Fura Red, AM (1.25 μM), for 30 min at 37° C. Platelets were washed twice with PWB prior to being resuspended in Tyrode's buffer containing 1 mM calcium.
For static adhesion assays, platelets were allowed to settle on the surface of vWf-coated coverslips for 30 min at 37° C. For flow assays, platelets were either perfused over a vWf-coated microcapillary tube at a constant shear rate of 600, 1800 or 10,000 s^−1 or allowed to settle on the surface of a vWf-coated microcapillary tube prior to being accelerated through a shear gradient of 10,000 s^−1 over a 1 s interval. Real time platelet calcium flux in individual platelets was monitored at 1 s intervals over the 30 min incubation period or at 0.586 s intervals for up to 175 s for static and flow-based assays, respectively.

various isoforms of PI3K = system: T4, various isoforms of PI3K; settings: measured IC50 stated to agree with previously reported values; read-out: IC50 against the various isoforms of PI3K; cited from earlier work
T4 construct: The γ isoform was produced as a recombinant protein in the Kinacia laboratories

T1 sequence (P42338 whole entry, canonical isoform): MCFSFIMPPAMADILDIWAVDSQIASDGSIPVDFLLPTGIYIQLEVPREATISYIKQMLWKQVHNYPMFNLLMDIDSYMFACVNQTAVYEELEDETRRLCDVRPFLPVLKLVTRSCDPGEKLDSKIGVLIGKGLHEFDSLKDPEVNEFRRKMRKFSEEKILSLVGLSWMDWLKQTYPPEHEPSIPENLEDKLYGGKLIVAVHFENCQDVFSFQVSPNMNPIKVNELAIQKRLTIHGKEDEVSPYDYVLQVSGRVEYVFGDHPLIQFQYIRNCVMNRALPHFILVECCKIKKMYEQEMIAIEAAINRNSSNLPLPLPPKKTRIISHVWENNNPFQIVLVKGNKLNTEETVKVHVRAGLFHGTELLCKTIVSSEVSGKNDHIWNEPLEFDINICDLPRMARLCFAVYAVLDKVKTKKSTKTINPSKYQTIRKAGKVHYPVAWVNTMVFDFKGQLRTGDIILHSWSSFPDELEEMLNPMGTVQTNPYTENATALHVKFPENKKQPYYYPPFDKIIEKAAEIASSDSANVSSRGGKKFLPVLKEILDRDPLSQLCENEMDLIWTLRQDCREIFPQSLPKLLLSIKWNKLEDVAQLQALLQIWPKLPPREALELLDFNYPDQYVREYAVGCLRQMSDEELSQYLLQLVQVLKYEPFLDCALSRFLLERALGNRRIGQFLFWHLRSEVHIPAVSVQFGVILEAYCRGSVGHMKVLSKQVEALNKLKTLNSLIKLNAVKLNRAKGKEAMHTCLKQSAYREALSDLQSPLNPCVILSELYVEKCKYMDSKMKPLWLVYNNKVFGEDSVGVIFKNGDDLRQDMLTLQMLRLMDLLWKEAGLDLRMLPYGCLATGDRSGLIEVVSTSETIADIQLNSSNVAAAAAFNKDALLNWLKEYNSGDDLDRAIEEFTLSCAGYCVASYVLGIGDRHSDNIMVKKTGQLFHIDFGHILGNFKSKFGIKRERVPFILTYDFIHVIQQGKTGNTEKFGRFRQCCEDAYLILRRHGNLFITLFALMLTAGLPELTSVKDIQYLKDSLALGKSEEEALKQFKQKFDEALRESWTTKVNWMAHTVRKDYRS
T1 sequence (P27986 whole entry partner, canonical isoform): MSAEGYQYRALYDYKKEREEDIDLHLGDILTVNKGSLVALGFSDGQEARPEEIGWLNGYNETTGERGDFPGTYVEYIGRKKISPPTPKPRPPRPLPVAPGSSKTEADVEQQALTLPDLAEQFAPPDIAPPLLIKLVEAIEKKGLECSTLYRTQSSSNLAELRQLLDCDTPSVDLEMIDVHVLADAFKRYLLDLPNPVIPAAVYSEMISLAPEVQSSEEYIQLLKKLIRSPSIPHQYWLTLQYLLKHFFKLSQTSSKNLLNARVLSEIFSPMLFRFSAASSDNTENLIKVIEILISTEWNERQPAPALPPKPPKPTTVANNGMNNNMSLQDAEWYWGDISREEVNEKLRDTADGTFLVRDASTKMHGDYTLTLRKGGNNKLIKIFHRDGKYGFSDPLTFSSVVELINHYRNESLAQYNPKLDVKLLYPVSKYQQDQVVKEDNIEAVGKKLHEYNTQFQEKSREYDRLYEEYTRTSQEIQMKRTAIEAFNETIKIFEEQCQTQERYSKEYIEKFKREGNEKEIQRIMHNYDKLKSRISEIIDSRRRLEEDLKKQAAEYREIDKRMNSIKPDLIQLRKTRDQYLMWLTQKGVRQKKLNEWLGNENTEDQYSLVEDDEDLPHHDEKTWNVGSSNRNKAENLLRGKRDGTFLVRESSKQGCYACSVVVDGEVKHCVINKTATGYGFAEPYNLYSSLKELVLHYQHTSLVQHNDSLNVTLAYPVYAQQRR
T3 sequence (O00329 whole entry, canonical isoform): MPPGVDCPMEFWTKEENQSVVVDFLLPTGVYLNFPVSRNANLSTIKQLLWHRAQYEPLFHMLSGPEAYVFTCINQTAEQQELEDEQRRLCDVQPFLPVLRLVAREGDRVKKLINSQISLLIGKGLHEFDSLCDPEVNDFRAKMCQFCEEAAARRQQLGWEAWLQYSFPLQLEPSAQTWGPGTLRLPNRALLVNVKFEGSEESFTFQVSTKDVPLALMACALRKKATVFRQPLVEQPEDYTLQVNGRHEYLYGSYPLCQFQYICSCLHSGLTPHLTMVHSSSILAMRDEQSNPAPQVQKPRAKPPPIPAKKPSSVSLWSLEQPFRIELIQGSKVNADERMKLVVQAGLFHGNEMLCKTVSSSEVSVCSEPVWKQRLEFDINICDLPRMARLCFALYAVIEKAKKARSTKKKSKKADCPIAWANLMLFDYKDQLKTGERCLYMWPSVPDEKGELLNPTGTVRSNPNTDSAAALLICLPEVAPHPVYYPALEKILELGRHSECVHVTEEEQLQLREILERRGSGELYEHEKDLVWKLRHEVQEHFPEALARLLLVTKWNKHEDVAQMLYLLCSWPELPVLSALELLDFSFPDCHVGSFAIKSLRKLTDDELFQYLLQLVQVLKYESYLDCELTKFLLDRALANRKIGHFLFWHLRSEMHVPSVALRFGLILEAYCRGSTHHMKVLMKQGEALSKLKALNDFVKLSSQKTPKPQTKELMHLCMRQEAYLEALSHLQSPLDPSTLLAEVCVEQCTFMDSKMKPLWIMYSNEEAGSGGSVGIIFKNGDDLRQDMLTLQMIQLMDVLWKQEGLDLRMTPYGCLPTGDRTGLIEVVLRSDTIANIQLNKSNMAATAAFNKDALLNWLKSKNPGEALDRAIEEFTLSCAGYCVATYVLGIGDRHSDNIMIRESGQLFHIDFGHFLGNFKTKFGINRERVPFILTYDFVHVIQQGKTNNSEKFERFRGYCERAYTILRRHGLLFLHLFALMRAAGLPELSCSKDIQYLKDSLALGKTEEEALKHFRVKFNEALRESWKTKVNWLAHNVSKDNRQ
T3 sequence (P27986 whole entry partner, canonical isoform): as the sequence (P27986 whole entry partner, canonical isoform) above
T2 sequence (P48736 whole entry, species assumed, canonical isoform): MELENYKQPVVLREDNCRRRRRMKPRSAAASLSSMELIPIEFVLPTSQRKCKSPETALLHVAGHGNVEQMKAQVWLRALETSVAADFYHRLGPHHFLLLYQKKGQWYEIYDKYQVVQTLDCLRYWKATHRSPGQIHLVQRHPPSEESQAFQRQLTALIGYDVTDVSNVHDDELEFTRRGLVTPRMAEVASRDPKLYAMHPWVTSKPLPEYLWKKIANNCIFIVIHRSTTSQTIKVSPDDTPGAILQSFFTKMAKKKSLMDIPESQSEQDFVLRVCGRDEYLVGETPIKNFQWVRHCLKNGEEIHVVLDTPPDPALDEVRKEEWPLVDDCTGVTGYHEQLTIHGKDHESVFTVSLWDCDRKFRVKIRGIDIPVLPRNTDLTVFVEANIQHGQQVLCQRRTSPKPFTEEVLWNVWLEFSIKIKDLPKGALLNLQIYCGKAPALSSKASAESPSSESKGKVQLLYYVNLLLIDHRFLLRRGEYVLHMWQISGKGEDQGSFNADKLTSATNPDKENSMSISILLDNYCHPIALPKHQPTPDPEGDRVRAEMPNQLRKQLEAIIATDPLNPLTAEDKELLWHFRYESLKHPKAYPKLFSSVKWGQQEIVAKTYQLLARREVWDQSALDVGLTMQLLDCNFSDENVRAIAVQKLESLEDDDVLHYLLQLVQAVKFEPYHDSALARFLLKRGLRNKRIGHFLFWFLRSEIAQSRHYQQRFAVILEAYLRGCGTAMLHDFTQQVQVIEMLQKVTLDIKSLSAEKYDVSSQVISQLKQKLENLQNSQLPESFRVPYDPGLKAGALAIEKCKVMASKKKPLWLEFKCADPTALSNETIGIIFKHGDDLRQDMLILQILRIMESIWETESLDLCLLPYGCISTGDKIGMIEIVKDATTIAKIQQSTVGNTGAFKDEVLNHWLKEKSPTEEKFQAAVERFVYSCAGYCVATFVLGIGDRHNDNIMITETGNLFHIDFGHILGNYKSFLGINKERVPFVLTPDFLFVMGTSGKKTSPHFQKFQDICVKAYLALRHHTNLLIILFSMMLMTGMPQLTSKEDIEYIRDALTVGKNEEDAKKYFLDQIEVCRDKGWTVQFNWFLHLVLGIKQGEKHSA

IC50 (neutrophils)	IC50 (P110 γ)	IC50 (P110 δ)	IC50 [2]	Compound	IC50 (neutrophils; Homo sapiens, Neutrophil)	IC50 (platelet rich plasma)	treated animals returned to baseline within 10 minutes [1]	IC50 (U937 cells)	IC50 ([2]; Platelet)	IC50 [3]	IC50 (P110 β isoform)	decrease in platelet adhesion (washed platelets; 10 nM)	decrease in platelet adhesion (washed platelets; 25 nM)	decrease in platelet adhesion (washed platelets; 50 nM)	platelet responses to accelerated shear [4]	IC50 (various isoforms of PI3K)
				Cc1cc(C(C)Nc2ccccc2)c2oc(-c3ccncc3)cc(=O)c2c1 (stereo not shown) [TGX-286, 8-1-(phenylamino)ethyl-6-methyl-2-(4-pyridinyl)-4H-1-benzopyran-4-one]	5 nM	100 nM	80%	5 µM	500 nM	2 nM	2 nM	51%	67%	86%		
78 nM	15 µM	500 nM	250 nM	8-(1-(2-aminophenylamino)ethyl-2-(4-pyridinyl)-4H-benzopyran-1-one [KN327]		200 nM	80%			20 nM						
				O=c1cc(N2CCOCC2)oc2c(-c3ccccc3)cccc12 [LY294002, 8-phenyl-2-(4-morpholinyl)-4H-benzopyran-4-one, reference compound]											eliminates platelet responses to accelerated shear	500 to 1500 nM
